# Measurements reported in patent US20180193412A1, “Method of In Vivo Treatment” (Hexima Limited, priority 2015, published 2018).
# Key:
# [1] = tested on: clinical isolates of T. rubrum (14-01, 14-02, 14-03, 13-04); experiment: Inhibition of growth of clinical isolates of T. rubrum (FIG. 2); type: cell-based, Trichophyton rubrum; conditions: all four clinical isolates
# Description: (§1) FIG. 2(A) is a graphical representations showing the effect of the plant defensins NaD1 (dashed line) and HXL008 (solid line) on the growth of clinical isolate 14-01 of Trichophyton rubrum in vitro. Fungal growth was measured by the increase in optical density at 595 nm (A595) achieved 72 hours after inoculation of the growth medium and is plotted as a percentage of growth relative to a no-protein control (vertical axis) versus protein concentration (μg/mL, horizontal axis).
# as §1, with “2(B)” for “2(A)”, “representation” for “representations”, “14-02” for “14-01”, “axis). […]” for “axis).”
# Antifungal assays are conducted in 96 well microtitre plates essentially as herein described. […] Fungal growth is assayed by measuring optical density at 595 nm (A595) using a microtitre plate reader (SpectraMax Pro M2; Molecular Devices. Growth is allowed to proceed until the optical density (OD) of the fungus in the absence of any test defensin reached an OD of 0.2. Each test is performed in duplicate.
# [2] = tested on: C. albicans; experiment: Inhibition of growth of Candida albicans, Example 2 antifungal assay; type: cell-based; conditions: Table 4; ½ strength PDB, 30° C., A595
# Description: The inhibitory effects of the plant defensins on the growth of Candida albicans, Aspergillus fumigatus (obtained from the National Mycology Reference Centre, South Australia Pathology at the Women's and Children's Hospital, Adelaide, Australia), C. glabrata, C. tropicalis, A. flavus, A. niger, A. fumigants, Cryptococcus neoformans and C. gattii (obtained from Dee Carter, University of Sydney, New South Wales, Australia) are measured essentially as described by Broekaert et al. (1990) FEMS Microbiol Lett 69:55-59.
# Spores of A. flavus. A. niger and A. fumigatus are isolated from sporulating fungus growing on ½ strength Sabouraud dextrose agar. Spores were removed from the plates by the addition of ½ strength potato dextrose broth (PDB). C. albicans, C. glabrata, C. tropicalis, C. neoformans and C. gattii cells are grown in Yeast Peptone Broth (YPD) for 16 h. Spore and cell concentrations are measured using a hemocytometer.
# Antifungal assays are conducted in 96 well microtitre plates essentially as herein described. Wells are loaded with 20 μL of filter sterilized (0.22 μm syringe filter, Millipore) defensin (10× stock for each final concentration) or water and 80 μL of 5×10^4 spores/mL (A. flavus, A. niger, A. fumigatus), 5,000 cells/mL (C. albicans, C. glabrata, C. tropicalis) or 1×10^6 cells/mL (C. neoformans, C. gattii) in ½ strength PDB. The plates are incubated at 30° C. Fungal growth is assayed by measuring optical density at 595 nm (A595) using a microtitre plate reader (SpectraMax Pro M2; Molecular Devices. Growth is allowed to proceed until the optical density (OD) of the fungus in the absence of any test defensin reached an OD of 0.2. Each test is performed in duplicate.
substance,measurement,setting,value
HXL008: Class I plant defensin from Picramnia pentandra (KVCTKPSKFFKGLCGTDGACTTACRKEGLHSGYCQLKGFLNSVCVCRKHC; HXL008 Picramnia pentandra),Growth inhibition of T. rubrum clinical isolates compared with NaD1,[1],inhibited growth at a lower concentration than NaD1
same,IC50 against C. albicans,[2],20 µg/mL
